Laboratory results as given in ChEMBL document CHEMBL1201862, “PubChem BioAssay data set” (2004).
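Cultured in 96-well plates, cells were exposed to test compound for 48 hours across five concentrations. At the GI50, growth is halved.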 The source made the active and inactive calls. Cut-off read from the data, not from the text of the source: active = GI50 up to about 1.1 µM and inactive = higher.

What was measured:
Assay in all cases: NCI anticancer screen, dose series, 48 h
SW-620 = tested on: SW-620
K562 = tested on: K562
Malme-3M = tested on: Malme-3M
SK-MEL-2 = tested on: SK-MEL-2
MDA-MB-231 = tested on: MDA-MB-231
SN12C = tested on: SN12C
MDA-N = tested on: MDA-N
PC-3 = tested on: PC-3
NCI-H23 = tested on: NCI-H23
OVCAR-5 = tested on: OVCAR-5
RPMI-8226 = tested on: RPMI-8226
HCT-116 = tested on: HCT-116
CCRF-CEM = tested on: CCRF-CEM
HCT-15 = tested on: HCT-15
SR = tested on: SR
HOP-62 = tested on: HOP-62
SF-268 = tested on: SF-268
SK-MEL-28 = tested on: SK-MEL-28

Row | Structure (SMILES) | GI50 (SW-620) | GI50 (K562) | GI50 (Malme-3M) | GI50 (SK-MEL-2) | GI50 (MDA-MB-231) | GI50 (SN12C) | GI50 (MDA-N) | GI50 (PC-3) | GI50 (NCI-H23) | GI50 (OVCAR-5) | GI50 (RPMI-8226) | GI50 (HCT-116) | GI50 (CCRF-CEM) | GI50 (HCT-15) [µM] | GI50 (SR) | GI50 (HOP-62) | GI50 (SF-268) | GI50 (SK-MEL-28)
1 | C=C1c2nc3ccccc3n2C=C(c2ccc(OC)cc2)N1c1ccc(OC)cc1 | 37.8 µM (inactive) | > 100 µM (inactive) | 11 µM (inactive) | 29.3 µM (inactive) | 20 µM (inactive) | 17.8 µM (inactive) | 22.1 µM (inactive) | 19 µM (inactive) | 21.1 µM (inactive) | 65.5 µM (inactive) | 29.4 µM (inactive) | 17.4 µM (inactive) | > 100 µM (inactive) | 25.5 | 12.8 µM (inactive) |  |  | 
2 | [O-][S+]1c2ccc(Cl)cc2CC(SSC2Cc3cc(Cl)ccc3[S+]([O-])c3ccccc32)c2ccccc21 (stereo not drawn) | > 100 µM (inactive) | > 100 µM (inactive) | > 100 µM (inactive) | > 100 µM (inactive) |  | > 100 µM (inactive) |  |  | > 100 µM (inactive) | > 100 µM (inactive) | > 100 µM (inactive) | > 100 µM (inactive) | > 100 µM (inactive) |  |  | > 100 µM (inactive) | > 100 µM (inactive) | > 100 µM (inactive)
3 | CC1(O)CC2C(CC1SCCO)C2(C)C (stereo not drawn) |  | > 100 µM (inactive) | > 100 µM (inactive) | > 100 µM (inactive) |  | > 100 µM (inactive) |  |  | > 100 µM (inactive) | > 100 µM (inactive) | > 100 µM (inactive) | > 100 µM (inactive) | > 100 µM (inactive) | > 100 |  |  | > 100 µM (inactive) | > 100 µM (inactive)
4 | CC(=O)NNc1nc(C)c(C(=O)NNC(=O)C(=O)Nc2ccc(C)c(C)c2)s1 | > 100 µM (inactive) | 52.6 µM (inactive) | > 100 µM (inactive) | > 100 µM (inactive) |  | > 100 µM (inactive) |  |  | > 100 µM (inactive) | > 100 µM (inactive) | 50.9 µM (inactive) | > 100 µM (inactive) | 42.2 µM (inactive) | 78.9 | 54.1 µM (inactive) | > 100 µM (inactive) | > 100 µM (inactive) | > 100 µM (inactive)
5 | Cn1nc(-c2ccccc2)c(C(=O)/C=C/c2ccc(Cl)cc2)c(N2CCCCC2)c1=O | 3.48 µM (inactive) | 2.04 µM (inactive) |  |  |  | 3.53 µM (inactive) |  |  | 2.19 µM (inactive) |  | 2.05 µM (inactive) | 1.81 µM (inactive) | 2.18 µM (inactive) | 2.98 |  | 2.37 µM (inactive) | 2 µM (inactive) | 3.78 µM (inactive)
6 | C=C1C(=O)OC2C1CC[C@H](C)C1(O)C(O)CC(=O)[C@@]21C (stereo partly drawn) | 20.6 µM (inactive) | 14.3 µM (inactive) | 17.3 µM (inactive) | 27.2 µM (inactive) |  | 22 µM (inactive) |  |  | 18.7 µM (inactive) | 21 µM (inactive) | 22.1 µM (inactive) | 15 µM (inactive) | > 10 µM (inactive) |  | 17.1 µM (inactive) |  | 23.3 µM (inactive) | 13.6 µM (inactive)
7 | COC(=O)C1=C(C)N(NC(N)=O)C(C)(O)C12CCOC2=O (stereo not drawn) | > 100 µM (inactive) | > 100 µM (inactive) | > 100 µM (inactive) | > 100 µM (inactive) |  | > 100 µM (inactive) |  |  | > 100 µM (inactive) | > 100 µM (inactive) | > 100 µM (inactive) | > 100 µM (inactive) | > 100 µM (inactive) | > 100 |  | > 100 µM (inactive) | > 100 µM (inactive) | > 100 µM (inactive)
8 | O=C1CCCCC/C=C2/CC[C@H](Sc3ccccc3)[C@@H]12 | > 100 µM (inactive) | > 100 µM (inactive) | > 100 µM (inactive) | 71.9 µM (inactive) |  | > 100 µM (inactive) |  |  | 83 µM (inactive) |  | > 100 µM (inactive) | 52.4 µM (inactive) | 6.27 µM (inactive) | > 100 | 55.2 µM (inactive) | 37.3 µM (inactive) | 88.5 µM (inactive) | > 100 µM (inactive)
9 | O=C(Nc1ccccc1)O/N=C1/CCCC/C1=C\c1ccccc1 | 16.3 µM (inactive) | 10 µM (inactive) |  | 15 µM (inactive) |  | 16.3 µM (inactive) |  |  | 26 µM (inactive) | 26.2 µM (inactive) | 16.5 µM (inactive) | 13.7 µM (inactive) | 10.7 µM (inactive) | 11.3 | 16.1 µM (inactive) | 21.9 µM (inactive) | 15.6 µM (inactive) | 17.6 µM (inactive)
10 | O=C(CN1CCCCC1)N1CCc2c([nH]c3ccccc23)C1c1cccnc1 (stereo not drawn) | > 100 µM (inactive) | > 100 µM (inactive) |  |  |  | > 100 µM (inactive) |  |  | > 100 µM (inactive) | > 100 µM (inactive) | > 100 µM (inactive) | > 100 µM (inactive) | > 100 µM (inactive) | > 100 |  | > 100 µM (inactive) | > 100 µM (inactive) | > 100 µM (inactive)
